Experiments:
[1] = Inhibition of human CES2A using fluorescein diacetate as fluorescent substrate preincubated for 3 mins followed by substrate addition and measured after 30 mins by fluorescence based analysis
[2] = Inhibition of human CES1A using NLMe as substrate preincubated for 3 mins followed by substrate addition and measured after 20 mins by Spectra max microplate reader analysis
[3] = Metabolic stability in human liver microsomes assessed as half life at 10 uM preincubated for 3 mins followed by UDPGA addition and measured upto 120 mins by HPLC analysis; assay type: ADME, Microsome; conditions: time < 123 min
[4] = Binding affinity to human CES2A assessed as inhibition constant using fluorescein diacetate as fluorescent substrate preincubated for 3 mins followed by substrate addition and measured after 30 mins by Lineweaver-Burk plot analysis
[5] = Inhibition of intracellular CES2A in human HepG2 cells assessed as reduction in NCEN hydrolysis incubated for 1 hr; assay type: cell-based
[6] = system: HepG2; assay: Cytotoxicity against human HepG2 cells assessed as reduction in cell viability at 10 uM measured after 24 hrs by CCK-8 method; assay type: toxicity, cell-based; conditions: hepg2, 24 h
[7] = organism: Homo sapiens; assay: Selectivity ratio of IC50 for human CES1A to IC50 for human CES2A
[8] = Metabolic stability in human liver microsomes assessed as half life at 10 uM preincubated for 3 mins followed by NADPH addition and measured upto 120 mins by HPLC analysis; assay type: ADME, Microsome; conditions: time < 123 min

SMILES	IC50 [1] [µM]	other results
CCCCCCCCC(=O)c1cccc(OC)c1-c1cc2c(C(=O)CCCCCCCC)cccc2o1	0.6	–
CCCCCCC(=O)c1cccc2oc(-c3cc(C(=O)OC)ccc3O)cc12	0.035	–
CCCCCCC(=O)c1cccc2oc(-c3ccccc3C(=O)O)cc12	0.36	–
CCCCCCCCC(=O)c1cccc2oc(-c3ccc(C)cc3C(=O)O)cc12	0.11	–
CCCCCCC(=O)c1cccc2oc(-c3cc(OC)ccc3O)cc12	0.008	–
CCCCCCCCC(=O)c1cccc(O)c1-c1cc2c(C(=O)CCCCCC)cccc2o1	0.058	–
CCCCCCCCC(=O)c1cccc2oc(-c3cc(OC)ccc3O)cc12	0.022	IC50 [2]: 2.61 µM
CCCCCCC(=O)c1cccc2oc(-c3cc(C(F)(F)F)ccc3O)cc12	0.02	–
CCCCCCCCC(=O)c1cccc2oc(-c3ccc(OC)cc3O)cc12	0.14	–
CCCCCCCCC(=O)c1cccc(O)c1-c1cc2c(C(=O)CCCCCCCC)cccc2o1	1.09	–
CCCCCCCCC(=O)c1cccc(O)c1-c1cc2ccc(OC)cc2o1	0.19	–
CCCCCCC(=O)c1cccc2oc(-c3ccc(C)cc3C(=O)OC)cc12	0.3	–
CCCCCCCCC(=O)c1cccc2oc(-c3ccccc3)cc12	5.41	–
O=c1ccc2ccc(O)cc2o1 [UMBELLIFERONE]	–	half-life at 10 µM [3]: 0.304 h
CCCCCCC(=O)c1c(C)ccc2oc(-c3cc(OC)ccc3O)cc12	0.002	Ki [4]: 0.0014 µM; half-life at 10 µM [3]: 1.62 h; IC50 ([5]; Homo sapiens, HepG2, 1 h, read-out: IC50): 0.052 µM; IC50 ([5]; hepg2): Dose-Dependent Effect; Activity [6]: Non-Toxic; IC50 [2]: 7.26 µM; Ratio IC50 [7]: 4540; half-life at 10 µM [8]: 2.1 h
CCCCCCCCC(=O)c1cccc2oc(-c3ccc(C)cc3C(=O)OC)cc12	0.31	–
CCCCCCC(=O)c1cccc2oc(-c3ccccc3C(=O)OC)cc12	0.25	–

SMILES	IC50 [1] [µM]	other results
CN(C)C(=O)C(CCN1CCC(O)(c2ccc(Cl)cc2)CC1)(c1ccccc1)c1ccccc1 [LOPERAMIDE]	0.35	–
CCCCCCC(=O)c1cccc2oc(-c3cc(OCC)ccc3O)cc12	0.009	–
CCCCCCCCC(=O)c1cccc2oc(-c3ccccc3O)cc12	0.032	–
CCCCCCCCC(=O)c1cccc(O)c1-c1cc2cc(C)ccc2o1	0.084	–
CCCCCCCCC(=O)c1cccc2oc(-c3c(O)cccc3C(=O)CCC)cc12	0.029	–
CCCCCCCCC(=O)c1cccc(OC(C)=O)c1-c1cc2c(C(=O)CCCCCCCC)cccc2o1	0.69	–
CCCCCCC(=O)c1cccc2oc(-c3cc(C(=O)O)ccc3O)cc12	0.2	–
CCCCCCCCC(=O)c1cccc(O)c1-c1cc2cc(OC)ccc2o1	0.1	–
CCCCCCCCC(=O)c1cccc2oc(-c3cc(C)ccc3O)cc12	0.054	–
CCCCCCCCC(=O)c1cccc2oc(-c3ccccc3C(=O)O)cc12	0.13	–
CCCCCCCCC(=O)c1cccc2oc(-c3c(O)cccc3C(=O)CCCCCC)cc12	0.054	–
CCCCCCCCC(=O)c1cccc(O)c1-c1cc2ccccc2o1	0.23	–
C[C@]12CC[C@H]3[C@@H](CCC4=CC(=O)CC[C@@]43C)[C@@H]1CC[C@@H]2O [TESTOSTERONE]	–	half-life at 10 µM [8]: 0.46 h
CCCCCCCCC(=O)c1cccc(O)c1-c1cc2c(C(=O)CCC)cccc2o1	0.12	–
CCCC(=O)c1cccc2oc(-c3cc(OC)ccc3O)cc12	0.021	–
CCCCCCCCC(=O)c1cccc2oc(-c3ccccc3C(=O)OC)cc12	0.1	–
CCCCCCC(=O)c1cccc2oc(-c3ccc(C)cc3C(=O)O)cc12	0.49	–

From ChEMBL document CHEMBL5625217, “New bysspectin A derivatives as potent inhibitors of human carboxylesterase 2A” (Eur J Med Chem, 2023)
